In assay [1] the test system is human cervical carcinoma cell line HELA. Nature of the assay: In vitro tumor cell proliferation inhibition (MTT): HELA. Type of assay: cell-based. The conditions noted are these: 72 hours. The text has this:
(§1) The purpose of the experiment was to test the inhibition activity of the compounds of the invention for in vitro human tumor cell proliferation by the methyl thiazolyl tetrazolium (MTT) colorimetry.
(§2) Main reagents: RPMI-1640, fetal bovine serum, pancreatin, etc. were purchased from Gibco BRL Company (Invitrogen Corporation, USA) and IMDM medium that was purchased from American Type Culture Collection (ATCC). Methyl thiazolyl tetrazolium (MTT) and dimethyl sulfoxide (DMSO) were products from Sigma Company (USA). Pyrazolopyrimidine derivatives were composed by the inventor. During in vitro experiment, 100% DMSO was prepared into 10 mM storage solution, the solution was stored in a refrigerator at −20° C. for future use, and was diluted to the required concentration with complete culture solution before use.
(§3) Cell line and culture: Human leukemia cell line MV4-11, Jurkat, K562, human thyrophyma cell line TT, human gastric carcinoma cell line MKN-45, human malignant melanoma cell lines A375 and A875, human pancreatic carcinoma cell line panc-1, human cervical carcinoma cell line HELA, human colorectal carcinoma cell line HCT116, etc. were purchased from American type culture collection and were preserved by this laboratory. All leukemia cell lines (except MV4-11), gastric carcinoma cell lines and thyrophyma cell lines were cultured in RPMI-1640 complete medium containing 10% fetal bovine serum, 100 U/mL penicillin and 100 μg/mL streptomycin at 37° C. in 5% CO2. The remaining cell lines were cultured in DMEM complete medium containing 10% fetal bovine serum (containing 20% MV4-11 cell), 100 U/mL penicillin and 100 µg/mL streptomycin at 37° C. in 5% CO2.
(§4) Cell suspension with cell concentration of 1-2×10^4/mL was adjusted with the complete cell medium and inoculated in a 96-well plate, with each well filled with 200 μl cell suspension that was cultured overnight. On the next day, supernatant was sucked and abandoned (supernatant was sucked upon centrifugation of suspension cells), and then cells were processed with test compounds at gradient concentrations respectively. Meanwhile, a negative control group free from drug and a solvent control group with equal volume were set, and the DMSO concentration was 0.1%. Each dose group was provided with three wells and cultured at 37° C. in 5% CO2. After 72 hours, 20 μl 5 mg/mL MTT reagent was added to each well, and cultured for another 2 to 4 hours, the supernatant was abandoned; 150 μL DMSO was added to each well again, vibrated and mixed evenly for 15 minutes; the absorbance (A) values (proportional to living cell amount) were determined with a microplate reader (λ=570 nm) and averaged. […] Experiment was repeated for 3 times at least. Experimental data were expressed with means, data statistics were tested by t, and P<0.05 means that difference has a statistical significance. The cell proliferation inhibition effects of all compounds as follows are expressed by IC50 or inhibition rate.

Assay [2] relates to human malignant melanoma cell line A875. Nature of the assay: In vitro tumor cell proliferation inhibition (MTT): A875. Type of assay: cell-based.
Source text: as §1, §2, §3, §4

Assay [3] concerns human malignant melanoma cell line A375. Kind of assay: In vitro tumor cell proliferation inhibition (MTT): A375. The assay is classed as cell-based.
Source text: as §1, §2, §3, §4

The test system of assay [4] is human leukemia cell line Jurkat. Kind of assay: In vitro tumor cell proliferation inhibition (MTT): Jurkat. Type of assay: cell-based. The conditions noted are these: 72 hours.
Source text: as §1, §2, §3, §4

A further assay deals with c-KIT (Homo sapiens, UniProt P10721). Kind of assay: Kinase inhibition activity test, isotope labeling: c-KIT. The assay is classed as biochemical. Particulars: for Activity inhibition rate c-Kit (h) / inhibition at 10 µM: test compound at a concentration of 10 μM; for inhibition at 10 µM: read-out: Activity inhibition rate c-Kit (h); for IC50: ATP 200 μM, read-out: c-KIT IC50 value (inhibitory activity value). The procedure: The purpose of this experiment was to test the inhibitory activity of the compound of the invention for in vitro kinase with the isotope labeling method (the γ phosphate group on ATP was labeled). In this experiment, the in vitro activity inhibition of such kinases as FLT3, VEGFR2, FLT1, FLT4, RET, c-RAF, B-RAF, c-KIT, PDGFα, PDGFβ, FGFR2, FGFR1, EphA2, EphB2, SRC, ABL, ALK and Met was tested respectively. Staurosporine was reference molecule (or referred to as positive control). The kinase inhibition activity of the test compound was expressed by half-inhibitory concentration (IC50) or the kinase activity inhibition rate of the test compound at a concentration of 10 μM. The IC50 value could be obtained by calculating the kinase activity inhibition rate of the test compound at different concentrations.
c-KIT, sequence (P10721 26-976): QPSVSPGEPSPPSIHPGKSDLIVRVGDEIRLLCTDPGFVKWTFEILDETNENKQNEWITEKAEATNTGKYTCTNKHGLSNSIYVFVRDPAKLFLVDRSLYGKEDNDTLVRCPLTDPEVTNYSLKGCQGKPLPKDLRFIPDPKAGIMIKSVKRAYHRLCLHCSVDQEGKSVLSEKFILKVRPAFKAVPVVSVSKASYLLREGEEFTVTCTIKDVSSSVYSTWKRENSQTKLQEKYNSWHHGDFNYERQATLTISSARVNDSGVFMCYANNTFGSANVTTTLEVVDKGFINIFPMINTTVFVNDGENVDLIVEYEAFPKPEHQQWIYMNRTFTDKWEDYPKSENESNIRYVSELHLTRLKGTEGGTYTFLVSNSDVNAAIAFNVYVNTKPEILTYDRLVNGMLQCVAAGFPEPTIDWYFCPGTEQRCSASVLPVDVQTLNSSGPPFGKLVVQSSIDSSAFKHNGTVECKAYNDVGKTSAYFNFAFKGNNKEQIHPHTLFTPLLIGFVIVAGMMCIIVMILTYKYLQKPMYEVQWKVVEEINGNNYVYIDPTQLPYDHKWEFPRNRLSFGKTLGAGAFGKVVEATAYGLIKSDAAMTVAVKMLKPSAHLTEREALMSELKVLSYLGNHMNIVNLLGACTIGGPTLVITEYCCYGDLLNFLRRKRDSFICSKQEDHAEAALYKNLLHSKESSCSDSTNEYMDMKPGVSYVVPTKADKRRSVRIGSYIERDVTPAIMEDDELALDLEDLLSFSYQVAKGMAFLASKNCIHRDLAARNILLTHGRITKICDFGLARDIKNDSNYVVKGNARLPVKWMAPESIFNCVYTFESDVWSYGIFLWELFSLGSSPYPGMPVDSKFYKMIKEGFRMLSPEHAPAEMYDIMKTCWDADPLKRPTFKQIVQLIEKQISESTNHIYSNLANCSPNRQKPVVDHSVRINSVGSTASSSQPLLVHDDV
20 mM 3-(N-morpholinyl)propanesulfonic acid (MOPS); 1 mM ethylenediaminetetraacetic acid (EDTA), 0.01% Brij 35 (Brij-35), 5% glycerol, 0.1% mercaptoethanol, 1 mg/mL bovine serum albumin (BSA), 10 mM manganous dichloride solution (MnCl2), 0.1 mg/mL glutamic acid/tyrosine (4:1) polypeptide (poly(Glu, Tyr)4:1), 50 μM EAIYAAPFAKKK (substrate of FLT3), 0.33 mg/mL myelin basic protein (substrate of VEGFR2), 250 μM KKKSPGEYVNIEFG (substrate of FLT1(h)), 500 μM GGEEEEYFELVKKKK (substrate of FLT4(h)), 250 μM KKKSPGEYVNIEFG (substrate of RET), 0.66 mg/mL myelin basic protein (substrate of C-RAF), 250 μM GGMEDIYFEFMGGKKK (substrate of c-Kit), 250 μM GGMEDIYFEFMGGKKK (substrate of PDGFα), 250 μM KKKSPGEYVNIEFG (substrate of FGFR1), […] GGEEEEYFELVKKKK (substrate of SRC), 50 μM EAIYAAPFAKKK (substrate of ABL), 250 μM KKKSPGEYVNIEFG (substrate of ALK), 250 μM KKKSPGEYVNIEFG (substrate of Met(h)), 10 mM magnesium acetate and γ-^33 P-ATP solution, stop buffer (3% phosphate buffer), washing buffer (75 mM phosphate solution), methanol, Filtermat A membrane, FLT3, VEGFR2, FLT3, VEGFR2, FLT1, FLT4, RET, c-RAF, B-RAF, c-KIT, PDGFRα, PDGFRβ, FGFR2, FGFR1, EphA2, EphB2, SRC, ABL, ALK, Met and other kinases, and the test compounds.
Buffers (8 mM MOPS with pH value of 7.0, 0.2 mM EDTA and 10 mM MnCl2), (5-10 mU) kinases to be tested (FLT3, VEGFR2, FLT1, FLT4, RET, c-RAF, B-RAF, c-KIT, PDGFRα, PDGFRβ, FGFR2, FGFR1, EphA2, EphB2, SRC, ABL, ALK and Met), substrates of kinases to be tested (refer to experimental materials), 10 mM magnesium acetate and γ-^33 P-ATP solution, and test compounds at different concentrations were added to a reaction tube orderly. […] Reaction was terminated with 5 μL 3% phosphate buffer finally, and 10 μL reaction solution was titrated to the Filtermat A membrane; solution was washed for 3 times with 75 mM phosphate solution with each time lasting 5 minutes, and then washed once with methanol. Finally, the Filtermat A membrane was dried, and scintillation counting was performed on the membrane, with scintillation count reflecting the phosphorylation degree of the substrates, so that the activity inhibition of kinase could be characterized.

In assay [5] the test system is human leukemia cell line K562. Nature of the assay: In vitro tumor cell proliferation inhibition (MTT): K562. The assay is classed as cell-based.
Source text: as §1, §2, §3, §4

Bounds are passed on as bounds.

On to “1-(4-((1H-pyrazolopyrimidine-4-yl)oxy)-3-fluorophenyl)-3-(3-trifluoromethoxy)phenyl)urea [4a-8]”, for which the IC50 in assay [1] was 8.49 µM; in assay [2] (72 hours), 6.97 µM; in assay [3] (72 hours), 4.65 µM; in assay [4], under 50 µM; in assay [5] (72 hours), under 50 µM. The “Activity inhibition rate c-Kit (h)” value at c-KIT was determined as 95%.

Consider “1-(4-((1H-pyrazolopyrimidine-4-yl)oxy)phenyl)-3-(methylcyclohexyl)urea [4a-20]”, for which the IC50 in assay [1], in assay [2] (72 hours), in assay [3] (72 hours), in assay [4] and in assay [5] (72 hours) was under 50 µM throughout. In addition, at c-KIT, the “Activity inhibition rate c-Kit (h)” value is on record as 98%.

On to `O=C(Nc1ccc(Oc2ncnc3[nH]ncc23)cc1)Nc1ccc(C(F)(F)F)cc1` [4a-1], for which the IC50 in assay [1] (Homo sapiens, HeLa) is under 50 µM; in assay [2] (Homo sapiens, A875, 72 hours) it was 3 to 10 µM; in assay [3] (Homo sapiens, A-375, 72 hours), under 50 µM; in assay [4] (Homo sapiens, Jurkat), under 50 µM; in assay [5] (Homo sapiens, K562, 72 hours), under 50 µM. Besides, at c-KIT, the inhibition at 10 µM turned out to be 100%.

On to `O=C(Nc1ccc(Oc2ncnc3[nH]ncc23)cc1)Nc1ccc(Cl)c(C(F)(F)F)c1` [4a-2], for which the IC50 in assay [1] is under 50 µM; in assay [2] (72 hours), 4.12 µM; in assay [3] (72 hours) it was 2.12 µM; in assay [4] it was 8.72 µM; on c-KIT, 0.507 µM; in assay [5] (72 hours), under 50 µM. The “Activity inhibition rate c-Kit (h)” value at c-KIT is 100%.

As to `O=C(Nc1ccc(Oc2ncnc3[nH]ncc23)cc1)Nc1cccc(C(F)(F)F)c1` [4a-6], the IC50 in assay [1] (Homo sapiens, HeLa) is under 50 µM; in assay [2] (Homo sapiens, A875, 72 hours), 6.24 µM; in assay [3] (Homo sapiens, A-375, 72 hours) it was 3.45 µM; in assay [4] (Homo sapiens, Jurkat) it was 4.28 µM; on c-KIT, 0.313 µM; in assay [5] (Homo sapiens, K562, 72 hours) it was under 50 µM. Further, the inhibition at 10 µM on c-KIT is 100%.

For the compound `CC(C)c1cccc(NC(=O)Nc2ccc(Oc3ncnc4[nH]ncc34)c(F)c2)c1` [4a-7, 1-(4-((1H-pyrazolopyrimidine-4-yl)oxy)-3-fluorophenyl)-3-(3-isopropylphenyl)urea], the IC50 in assay [1], in assay [2] (72 hours), in assay [3] (72 hours), in assay [4] and in assay [5] (72 hours) was under 50 µM throughout. For the same compound, the “Activity inhibition rate c-Kit (h)” value on c-KIT worked out at 98%.

`C[C@@H](NC(=O)Nc1ccc(Oc2ncnc3[nH]ncc23)cc1)c1ccccc1` [4a-19, (R)-1-(4-((1H-pyrazolopyrimidine-4-yl)oxy)phenyl)-3-(1-phenethyl)urea]: the IC50 in assay [1], in assay [2] (72 hours), in assay [3] (72 hours) and in assay [5] (72 hours) was under 50 µM throughout. Further, at c-KIT, the “Activity inhibition rate c-Kit (h)” value was 93%.

Take `CC(C)(C)c1cc(NC(=O)Nc2ccc(Oc3ncnc4[nH]ncc34)cc2)n(-c2ccccc2)n1` [4a-24]: the IC50 is 5.51 µM in assay [1], 4.27 µM in assay [2] (72 hours), 6.94 µM in assay [3] (72 hours) and under 50 µM in assay [5] (72 hours). In addition, the “Activity inhibition rate c-Kit (h)” value on c-KIT is over 90%.

For the compound `O=C(Nc1ccc(NC(=O)N2C=NC=C3NNC=C32)cc1)Nc1ccc(Cl)c(C(F)(F)F)c1` [4b-5, 1-(4-(1H-pyrazolopyrimidine-4-amido)phenyl)-3-(4-chloro-3-(trifluoromethyl)phenyl)urea], on c-KIT, the inhibition at 10 µM is over 30%.

With `COc1ccc(NC(=O)Nc2ccc(NC(=O)N3C=NC=C4NNC=C43)cc2)cc1` [4b-6, 1-(4-(1H-pyrazolopyrimidine-4-amido)phenyl)-3-(4-methoxyphenyl)urea], the IC50 was under 50 µM in assay [2] (Homo sapiens, A875, 72 hours); under 50 µM in assay [3] (Homo sapiens, A-375, 72 hours); under 50 µM in assay [4] (Homo sapiens, Jurkat); under 50 µM in assay [5] (Homo sapiens, K562, 72 hours). The inhibition at 10 µM at c-KIT was over 30%.

As to `Cc1cc(C)c(NC(=O)Nc2ccc(NC(=O)N3C=NC=C4NNC=C43)cc2)c(C)c1` [4b-7, 1-(4-(1H-pyrazolopyrimidine-4-amido)phenyl)-3-(2,4,6-trimethylphenyl)urea], the IC50 was under 50 µM in assay [2] (Homo sapiens, A875, 72 hours); under 50 µM in assay [3] (Homo sapiens, A-375, 72 hours); under 50 µM in assay [4] (Homo sapiens, Jurkat); under 50 µM in assay [5] (Homo sapiens, K562, 72 hours). In addition, at c-KIT, the inhibition at 10 µM was over 30%.

In the case of `O=C(Nc1ccc(Sc2ncnc3[nH]ncc23)cc1)Nc1ccc(C(F)(F)F)cc1` [4c-1], the IC50 in assay [2] (Homo sapiens, A875, 72 hours) is under 50 µM; in assay [3] (Homo sapiens, A-375, 72 hours) it was under 50 µM; in assay [4] (Homo sapiens, Jurkat), under 50 µM. For the same compound, the inhibition at 10 µM at c-KIT is over 90%.

With `O=C(Nc1ccc(Sc2ncnc3[nH]ncc23)cc1)Nc1cccc(C(F)(F)F)c1` [4c-2], the IC50 in assay [2] (72 hours), in assay [3] (72 hours) and in assay [4] was under 50 µM in each case. Also, the “Activity inhibition rate c-Kit (h)” value on c-KIT is over 90%.

With `CC(C)n1ncc2c(Oc3ccc(NC(=O)Nc4cc(C(C)(C)C)on4)cc3)ncnc21` [5a-4, 1-(5-tert-butylisoxazol-3-yl)-3-(4-(1-isopropyl-(1H-pyrazolopyrimidine-4-yl)oxy)phenyl)urea], the IC50 in assay [2] (Homo sapiens, A875, 72 hours) is under 50 µM; in assay [3] (Homo sapiens, A-375, 72 hours) it was under 50 µM; in assay [4] (Homo sapiens, Jurkat), under 50 µM; in assay [5] (Homo sapiens, K562, 72 hours) it was under 50 µM. For the same compound, the inhibition at 10 µM on c-KIT is over 30%.

Source of the values: patent publication US9828375B2, “4-position substituted pyrazolopyrimidine derivative, and use thereof in drug preparation” (Guangxi Wuzhou Pharmaceuticals (Group) Co., Ltd., priority 2012, dated 2017).
